Reference: ChEMBL document CHEMBL1201861, “Genomics of Drug Sensitity in Cancer screening data, Wellcome Trust Sanger Institute”
pIC50: −log10 of the molar value.

Key:
Test in all cases: cells
CTB-1 = format: functional, cell-based, Homo sapiens; conditions: Homo sapiens, CTB-1
Description: SANGER: Inhibition of human CTB-1 cell growth in a cell viability assay.

Calu-6 = format: functional, cell-based, Homo sapiens; conditions: Homo sapiens, Calu-6;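 also: growth of human Calu-6 cells, read out by a cell viability assay, IC50 marking inhibition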
Description: SANGER: Inhibition of human Calu-6 cell growth in a cell viability assay.

D283 Med = format: functional, cell-based, Homo sapiens; conditions: Homo sapiens, D283 Med
Description: SANGER: Inhibition of human D-283MED cell growth in a cell viability assay.

DJM-1 = format: functional, cell-based, Homo sapiens; conditions: Homo sapiens, DJM-1;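 also: growth inhibition of human DJM-1 cells, read out by a cell viability assay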
Description: SANGER: Inhibition of human DJM-1 cell growth in a cell viability assay.

DOHH-2 = format: functional, cell-based, Homo sapiens; conditions: Homo sapiens, DOHH-2;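 also: growth inhibition of human DOHH-2 cells, read out with a cell viability assay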
Description: SANGER: Inhibition of human DOHH-2 cell growth in a cell viability assay.

EKVX = format: functional, cell-based, Homo sapiens; conditions: Homo sapiens, EKVX;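 also: growth inhibition of human EKVX cells, read out with a cell viability assay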
Description: SANGER: Inhibition of human EKVX cell growth in a cell viability assay.

EW-1 = format: functional, cell-based, Homo sapiens; conditions: Homo sapiens, EW-1
Description: SANGER: Inhibition of human EW-1 cell growth in a cell viability assay.

EW-11 = format: functional, cell-based, Homo sapiens; conditions: Homo sapiens, EW-11;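 also: growth inhibition of human EW-11 cells, measured with a cell viability assay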
Description: SANGER: Inhibition of human EW-11 cell growth in a cell viability assay.

HD-MY-Z = format: functional, cell-based, Homo sapiens; conditions: Homo sapiens, HD-MY-Z;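 also: growth inhibition of HD-MY-Z cells, read out with a cell viability assay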
Description: SANGER: Inhibition of human HD-MY-Z cell growth in a cell viability assay.

HL-60 = format: functional, cell-based, Homo sapiens; conditions: Homo sapiens, HL-60;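 also: growth inhibition of human HL-60 cells, read out with a cell viability assay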
Description: SANGER: Inhibition of human HL-60 cell growth in a cell viability assay.

HT = format: functional, cell-based, Homo sapiens; conditions: Homo sapiens, HT
Description: SANGER: Inhibition of human HT cell growth in a cell viability assay.

HT-144 = format: functional, cell-based, Homo sapiens; conditions: Homo sapiens, HT-144
Description: SANGER: Inhibition of human HT-144 cell growth in a cell viability assay.

JVM-2 = format: functional, cell-based, Homo sapiens; conditions: Homo sapiens, JVM-2;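 also: growth inhibition of JVM-2 cells determined by a cell viability assay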
Description: SANGER: Inhibition of human JVM-2 cell growth in a cell viability assay.

KARPAS-45 = format: functional, cell-based, Homo sapiens; conditions: Homo sapiens, KARPAS-45;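 also: inhibition of cell line growth, read out through a viability assay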
Description: SANGER: Inhibition of human KARPAS-45 cell growth in a cell viability assay.

KINGS-1 = format: functional, cell-based, Homo sapiens; conditions: Homo sapiens, KINGS-1;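 also: cell viability assay measuring suppression of KINGS-1 cell growth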
Description: SANGER: Inhibition of human KINGS-1 cell growth in a cell viability assay.

KNS-42 = format: functional, cell-based; conditions: Homo sapiens;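 also: growth inhibition of KNS-42 cells, read out with a cell viability assay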
Description: SANGER: Inhibition of human KNS-42 cell growth in a cell viability assay.

LOX IMVI = format: functional, cell-based, Homo sapiens; conditions: Homo sapiens, LOX IMVI
Description: SANGER: Inhibition of human LOXIMVI cell growth in a cell viability assay.

Lu-65 = format: functional, cell-based, Homo sapiens; conditions: Homo sapiens, Lu-65;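 also: growth inhibition of Lu-65 cancer cells, read out by a cell viability assay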
Description: SANGER: Inhibition of human LU-65 cell growth in a cell viability assay.

MEG-01 = format: functional, cell-based, Homo sapiens; conditions: Homo sapiens, MEG-01;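 also: growth inhibition of MEG-01 cells, read out by a cell viability assay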
Description: SANGER: Inhibition of human MEG-01 cell growth in a cell viability assay.

MZ2-MEL = format: functional, cell-based, Homo sapiens; conditions: Homo sapiens, MZ2-MEL;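 also: growth inhibition of MZ2-MEL cells read out with a cell viability assay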
Description: SANGER: Inhibition of human MZ2-MEL cell growth in a cell viability assay.

NCI-H1092 = format: functional, cell-based, Homo sapiens; conditions: Homo sapiens, NCI-H1092;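 also: cell growth inhibition measured with a cell viability assay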
Description: SANGER: Inhibition of human NCI-H1092 cell growth in a cell viability assay.

NCI-H1155 = format: functional, cell-based, Homo sapiens; conditions: Homo sapiens, NCI-H1155;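 also: cell growth inhibition measured by a viability assay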
Description: SANGER: Inhibition of human NCI-H1155 cell growth in a cell viability assay.

NCI-H1581 = format: functional, cell-based, Homo sapiens; conditions: Homo sapiens, NCI-H1581;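 also: cell growth inhibition read out by a viability assay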
Description: SANGER: Inhibition of human NCI-H1581 cell growth in a cell viability assay.

NCI-H2126 = format: functional, cell-based, Homo sapiens; conditions: Homo sapiens, NCI-H2126;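 also: growth inhibition of the cancer cell line, determined with a cell viability readout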
Description: SANGER: Inhibition of human NCI-H2126 cell growth in a cell viability assay.

NCI-H23 = format: functional, cell-based, Homo sapiens; conditions: Homo sapiens, NCI-H23;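 also: cell viability assay measuring growth inhibition of NCI-H23 cells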
Description: SANGER: Inhibition of human NCI-H23 cell growth in a cell viability assay.

NCI-H446 = format: functional, cell-based, Homo sapiens; conditions: Homo sapiens, NCI-H446;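 also: growth inhibition of NCI-H446 cells determined by a cell viability assay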
Description: SANGER: Inhibition of human NCI-H446 cell growth in a cell viability assay.

NCI-H69 = format: functional, cell-based, Homo sapiens; conditions: Homo sapiens, NCI-H69;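 also: growth inhibition of the cell line, read out with a cell viability assay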
Description: SANGER: Inhibition of human NCI-H69 cell growth in a cell viability assay.

NCI-H82 = format: functional, cell-based, Homo sapiens; conditions: Homo sapiens, NCI-H82;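 also: growth inhibition of NCI-H82 cells, measured with a cell viability readout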
Description: SANGER: Inhibition of human NCI-H82 cell growth in a cell viability assay.

SNU-5 = format: functional, cell-based, Homo sapiens; conditions: Homo sapiens, SNU-5;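 also: cell viability readout used to measure growth inhibition in human NCI-SNU-5 cells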
Description: SANGER: Inhibition of human NCI-SNU-5 cell growth in a cell viability assay.

NEC8 = format: functional, cell-based, Homo sapiens; conditions: Homo sapiens, NEC8;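 also: growth inhibition of human NEC8 cells, read out by a cell viability assay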
Description: SANGER: Inhibition of human NEC8 cell growth in a cell viability assay.

NKM-1 = format: functional, cell-based, Homo sapiens; conditions: Homo sapiens, NKM-1;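 also: growth inhibition of NKM-1 cells, read out with a cell viability assay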
Description: SANGER: Inhibition of human NKM-1 cell growth in a cell viability assay.

OMC-1 = format: functional, cell-based, Homo sapiens; conditions: Homo sapiens, OMC-1;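 also: growth inhibition of the OMC-1 cell line, measured by a cell viability assay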
Description: SANGER: Inhibition of human OMC-1 cell growth in a cell viability assay.

P30-OHK = format: functional, cell-based, Homo sapiens; conditions: Homo sapiens, P30-OHK;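 also: growth inhibition of the P30-OHK cell line, read out with a cell viability assay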
Description: SANGER: Inhibition of human P30-OHK cell growth in a cell viability assay.

PSN1 = format: functional, cell-based, Homo sapiens; conditions: Homo sapiens, PSN1;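 also: suppression of growth of human PSN1 cells, read out by a cell viability assay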
Description: SANGER: Inhibition of human PSN1 cell growth in a cell viability assay.

RCC10RGB = format: functional, cell-based, Homo sapiens; conditions: Homo sapiens, RCC10RGB;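 also: growth inhibition of human RCC10RGB cells, read out by a cell viability assay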
Description: SANGER: Inhibition of human RCC10RGB cell growth in a cell viability assay.

RPMI-8226 = format: functional, cell-based, Homo sapiens; conditions: Homo sapiens, RPMI-8226
Description: SANGER: Inhibition of human RPMI-8226 cell growth in a cell viability assay.

SBC-1 = format: functional, cell-based, Homo sapiens; conditions: Homo sapiens, SBC-1;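 also: cell viability assay measuring growth inhibition of the SBC-1 cell line, IC50 being the concentration that halves growth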
Description: SANGER: Inhibition of human SBC-1 cell growth in a cell viability assay.

SK-MEL-1 = format: functional, cell-based, Homo sapiens; conditions: Homo sapiens, SK-MEL-1;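 also: growth inhibition of human SK-MEL-1 cells, read out by a cell viability assay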
Description: SANGER: Inhibition of human SK-MEL-1 cell growth in a cell viability assay.

SK-N-DZ = format: functional, cell-based, Homo sapiens; conditions: Homo sapiens, SK-N-DZ; read-out: IC50;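 also: growth inhibition of the cancer cell line, read out through a viability assay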
Description: SANGER: Inhibition of human SK-N-DZ cell growth in a cell viability assay.

SK-UT-1 = format: functional, cell-based, Homo sapiens; conditions: Homo sapiens, SK-UT-1;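 also: growth inhibition of SK-UT-1 cells, measured by a cell viability assay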
Description: SANGER: Inhibition of human SK-UT-1 cell growth in a cell viability assay.

SW 954 = format: functional, cell-based, Homo sapiens; conditions: Homo sapiens, SW 954;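 also: growth inhibition of SW954 human cancer cells, read out as cell viability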
Description: SANGER: Inhibition of human SW954 cell growth in a cell viability assay.

A3-KAW = format: functional, cell-based, Homo sapiens; conditions: Homo sapiens, A3-KAW;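 also: growth inhibition of human A3-KAW cells, read out with a cell viability assay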
Description: SANGER: Inhibition of human A3-KAW cell growth in a cell viability assay.

A388 = format: functional, cell-based; conditions: Homo sapiens;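 also: growth inhibition of human A388 cells, read out with a cell viability assay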
Description: SANGER: Inhibition of human A388 cell growth in a cell viability assay.

ALL-PO = format: functional, cell-based, Homo sapiens; conditions: Homo sapiens, ALL-PO;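 also: growth inhibition of ALL-PO cells, read out by a cell viability assay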
Description: SANGER: Inhibition of human ALL-PO cell growth in a cell viability assay.

BV-173 = format: functional, cell-based, Homo sapiens; conditions: Homo sapiens, BV-173
Description: SANGER: Inhibition of human BV-173 cell growth in a cell viability assay.

TE-10 = format: functional, cell-based, Homo sapiens; conditions: Homo sapiens, TE-10;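 also: growth inhibition of TE-10 cells, measured by a cell viability assay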
Description: SANGER: Inhibition of human TE-10 cell growth in a cell viability assay.

TE-8 = format: functional, cell-based, Homo sapiens; conditions: Homo sapiens, TE-8;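 also: growth inhibition of TE-8 cells, measured with a cell viability readout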
Description: SANGER: Inhibition of human TE-8 cell growth in a cell viability assay.

TGBC1TKB = format: functional, cell-based, Homo sapiens; conditions: Homo sapiens, TGBC1TKB;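 also: growth inhibition of TGBC1TKB cells, read out by a cell viability assay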
Description: SANGER: Inhibition of human TGBC1TKB cell growth in a cell viability assay.

VA-ES-BJ = format: functional, cell-based, Homo sapiens; conditions: Homo sapiens, VA-ES-BJ;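 also: growth inhibition of the VA-ES-BJ cell line, read out by a cell viability assay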
Description: SANGER: Inhibition of human VA-ES-BJ cell growth in a cell viability assay.

SMILES: CC1=C(/C=C/C(C)=C/C=C/C(C)=C/C(=O)O)C(C)(C)CCC1 [TRETINOIN]
- pIC50 (CTB-1): 5.79
- pIC50 (Calu-6): < 5.00
- pIC50 (D283 Med): 6.55
- pIC50 (DJM-1): < 5.00
- pIC50 (DOHH-2): < 5.00
- pIC50 (EKVX): < 5.00
- pIC50 (EW-1): < 5.00
- pIC50 (EW-11): < 5.00
- pIC50 (HD-MY-Z): < 5.00
- pIC50 (HL-60): 6.55
- pIC50 (HT): < 5.00
- pIC50 (HT-144): < 5.00
- pIC50 (JVM-2): 5.93
- pIC50 (KARPAS-45): 5.59
- pIC50 (KINGS-1): < 5.00
- pIC50 (KNS-42): < 5.00
- pIC50 (LOX IMVI): < 5.00
- pIC50 (Lu-65): < 5.00
- pIC50 (MEG-01): 5.02
- pIC50 (MZ2-MEL): < 5.00
- pIC50 (NCI-H1092): < 5.00
- pIC50 (NCI-H1155): < 5.00
- pIC50 (NCI-H1581): < 5.00
- pIC50 (NCI-H2126): < 5.00
- pIC50 (NCI-H23): < 5.00
- pIC50 (NCI-H446): < 5.00
- pIC50 (NCI-H69): 5.64
- pIC50 (NCI-H82): < 5.00
- pIC50 (SNU-5): < 5.00
- pIC50 (NEC8): < 5.00
- pIC50 (NKM-1): 5.08
- pIC50 (OMC-1): < 5.00
- pIC50 (P30-OHK): < 5.00
- pIC50 (PSN1): < 5.00
- pIC50 (RCC10RGB): < 5.00
- pIC50 (RPMI-8226): 6.00
- pIC50 (SBC-1): < 5.00
- pIC50 (SK-MEL-1): < 5.00
- pIC50 (SK-N-DZ): < 5.00
- pIC50 (SK-UT-1): < 5.00
- pIC50 (SW 954): < 5.00
- pIC50 (A3-KAW): 5.12
- pIC50 (A388): < 5.00
- pIC50 (ALL-PO): 5.16
- pIC50 (BV-173): 5.80
- pIC50 (TE-10): < 5.00
- pIC50 (TE-8): < 5.00
- pIC50 (TGBC1TKB): < 5.00
- pIC50 (VA-ES-BJ): < 5.00

SMILES: NC(=O)c1ccc(N(C(N)=O)c2c(F)cccc2F)nc1-c1ccc(F)cc1F [VX-702]
- pIC50 (CTB-1): < 5.70
- pIC50 (Calu-6): < 5.70
- pIC50 (D283 Med): < 5.70
- pIC50 (DJM-1): < 5.70
- pIC50 (DOHH-2): < 5.70
- pIC50 (EKVX): < 5.70
- pIC50 (EW-1): < 5.70
- pIC50 (EW-11): < 5.70
- pIC50 (HD-MY-Z): < 5.70
- pIC50 (HL-60): < 5.70
- pIC50 (HT): < 5.70
- pIC50 (HT-144): < 5.70
- pIC50 (JVM-2): 7.08
- pIC50 (KARPAS-45): 6.83
- pIC50 (KINGS-1): < 5.70
- pIC50 (KNS-42): < 5.70
- pIC50 (LOX IMVI): < 5.70
- pIC50 (Lu-65): < 5.70
- pIC50 (MEG-01): < 5.70
- pIC50 (MZ2-MEL): < 5.70
- pIC50 (NCI-H1092): < 5.70
- pIC50 (NCI-H1155): < 5.70
- pIC50 (NCI-H1581): < 5.70
- pIC50 (NCI-H2126): < 5.70
- pIC50 (NCI-H23): < 5.70
- pIC50 (NCI-H446): < 5.70
- pIC50 (NCI-H69): 7.00
- pIC50 (NCI-H82): < 5.70
- pIC50 (SNU-5): < 5.70
- pIC50 (NEC8): < 5.70
- pIC50 (NKM-1): < 5.70
- pIC50 (OMC-1): < 5.70
- pIC50 (P30-OHK): < 5.70
- pIC50 (PSN1): < 5.70
- pIC50 (RCC10RGB): < 5.70
- pIC50 (RPMI-8226): < 5.70
- pIC50 (SBC-1): 6.63
- pIC50 (SK-MEL-1): < 5.70
- pIC50 (SK-N-DZ): < 5.70
- pIC50 (SK-UT-1): < 5.70
- pIC50 (SW 954): < 5.70
- pIC50 (A3-KAW): < 5.70
- pIC50 (A388): < 5.70
- pIC50 (ALL-PO): < 5.70
- pIC50 (BV-173): 6.94
- pIC50 (TE-10): < 5.70
- pIC50 (TE-8): < 5.70
- pIC50 (TGBC1TKB): < 5.70
- pIC50 (VA-ES-BJ): < 5.70
